The source of these data is patent US20080308744A1 (Beth Israel Deaconess Medical Center, priority 2003, published 2008).

The nature of series [1]: Fluorescence spectrometry: relative fluorescent yield of 800 nm contrast agents. It is filed as physicochemical. On the procedure:
The performance of these agents in rat and pig model systems of SLN mapping for the skin, gastrointestinal tract and lung were also quantitated.
All of the samples were diluted with PBS, pH7.8, or with 100% FBS according to absorbance at λmax using 1-cm path length quartz spectrometer cell, and excited at 770 nm. Fluorescence was measured by calculating the area under the curve of the intensity from 785 nm to 950 nm subtracting the fluorescence of control PBS, pH 7.8.

A short description of series [2]: Quantum yield measurements. The format is physicochemical. The conditions noted are these: compared to QD.
The conditions of series [3]: in DMSO; cited from earlier work.
The nature of series [4]: Behaviour of the free dye in blood (description). As to conditions: small molecule form.

Take `CC1(C)C(/C=C/C2=C(Oc3ccc(S(=O)(=O)O)cc3)C(=C/C=C3/N(CCCCS(=O)(=O)O)c4ccc(S(=O)(=O)[O-])cc4C3(C)C)/CCC2)=[N+](CCCCCC(=O)O)c2ccc(S(=O)(=O)O)cc21` [800CW]: the entries for the “relative per molecule fluorescent yield to QDs” value in series [1] (in 100% fetal bovine serum) and in series [1] (in phosphate-buffered saline) were 1.0 and 0.4, respectively. The results for the quantum yield entry in series [2] (in FBS) and in series [2] (in PBS) were “rather higher” and “same as that of QD”, respectively.
`CC1(C)C(/C=C/C=C/C=C/C=C2\N(CCCCS(=O)(=O)O)c3ccc4ccccc4c3C2(C)C)=[N+](CCCCS(=O)(=O)[O-])c2ccc3ccccc3c21` [ICG, indocyanine green]: the “in vivo early half-life” value is reported as “shorter half-life”. Besides, in series [1] (in 100% fetal bovine serum), the “relative per molecule fluorescent yield to QDs” value was determined as 0.4. For the same compound, the “relative per molecule fluorescent yield to QDs” value in series [1] (in phosphate-buffered saline) was 0.1. In addition, in series [3], the “quantum yield (control)” value is given as 13%. For the same compound, the solubility in blood result in series [4] is reported as “somewhat less soluble in blood”.
